Reference: ChEMBL document CHEMBL1140281, “The discovery of a selective, high affinity A(2B) adenosine receptor antagonist for the potential treatment of asthma” (Bioorg Med Chem Lett, 2005)

Key:
Adenosine receptor A2b [1] = target: T1, Adenosine receptor A2b (Homo sapiens, UniProt P29275)
T1 sequence (P29275 whole entry): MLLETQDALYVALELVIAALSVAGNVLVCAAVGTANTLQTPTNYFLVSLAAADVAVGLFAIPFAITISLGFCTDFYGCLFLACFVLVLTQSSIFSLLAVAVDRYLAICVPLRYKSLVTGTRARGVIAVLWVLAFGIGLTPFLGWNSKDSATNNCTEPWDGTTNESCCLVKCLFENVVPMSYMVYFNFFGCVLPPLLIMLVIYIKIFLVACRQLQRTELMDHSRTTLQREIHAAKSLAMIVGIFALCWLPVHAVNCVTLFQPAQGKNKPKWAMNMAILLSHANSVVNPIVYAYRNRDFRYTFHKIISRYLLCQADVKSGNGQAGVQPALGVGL

Adenosine receptor A2b [2] = target: T1, Adenosine receptor A2b; assay: Binding affinity for adenosine A2b receptor by using as [3H]ZM-241385 radioligand in membranes from HEK-A2B cells
Adenosine receptor A2a [3] = target: T2, Adenosine receptor A2a (Homo sapiens, UniProt P29274); assay: biochemical
Description: Binding affinity for adenosine A2a receptor by using as [3H]ZM-241385 (2 nM) radioligand in membranes from HEK-A2A cells

Adenosine receptor A1 = target: T3, Adenosine receptor A1 (Homo sapiens, UniProt P30542); assay: biochemical
T3 sequence (P30542 whole entry): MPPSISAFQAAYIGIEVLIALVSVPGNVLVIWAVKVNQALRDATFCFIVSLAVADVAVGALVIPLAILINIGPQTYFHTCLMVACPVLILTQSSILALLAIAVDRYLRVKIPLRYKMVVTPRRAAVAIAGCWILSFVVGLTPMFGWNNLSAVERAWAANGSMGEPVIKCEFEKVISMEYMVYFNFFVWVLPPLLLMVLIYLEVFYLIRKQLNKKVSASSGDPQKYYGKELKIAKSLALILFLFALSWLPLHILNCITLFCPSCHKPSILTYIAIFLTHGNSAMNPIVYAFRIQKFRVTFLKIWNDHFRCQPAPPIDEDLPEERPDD

Adenosine receptor A2a [4] = target: T2, Adenosine receptor A2a; assay: biochemical; remark: listed apart in the source
Description: Binding affinity against Adenosine A2a receptor labeled by [3H]ZM-241385 in membranes prepared from HEK-A2A cells

Adenosine receptor A2b [5] = target: T1, Adenosine receptor A2b; assay: Binding affinity against Adenosine A2b receptor labeled by [3H]ZM-241385 in membranes prepared from HEK-A2B cells

T2 sequence (P29274 whole entry): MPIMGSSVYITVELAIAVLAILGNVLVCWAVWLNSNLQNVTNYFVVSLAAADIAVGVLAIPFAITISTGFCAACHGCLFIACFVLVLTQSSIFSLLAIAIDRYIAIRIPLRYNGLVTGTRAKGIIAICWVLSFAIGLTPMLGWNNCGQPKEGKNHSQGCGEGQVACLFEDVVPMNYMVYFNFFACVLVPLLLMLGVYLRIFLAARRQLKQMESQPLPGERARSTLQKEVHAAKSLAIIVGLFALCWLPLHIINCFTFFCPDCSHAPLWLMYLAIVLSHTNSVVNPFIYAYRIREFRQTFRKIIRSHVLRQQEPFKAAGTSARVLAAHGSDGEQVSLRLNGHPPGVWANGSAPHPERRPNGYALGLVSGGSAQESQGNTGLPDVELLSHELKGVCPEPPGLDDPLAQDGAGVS

Ki (Adenosine receptor A2b [1]) | Ki (Adenosine receptor A2b [2]) | Ki (Adenosine receptor A2a [3]) | Ki (Adenosine receptor A1) | Compound | Ki (Adenosine receptor A2a [4]) | Ki (Adenosine receptor A2b [5])
5830 nM |  |  |  | CCCn1c(=O)c2[nH]c(-c3ccc(OCc4noc(-c5ccccc5Cl)n4)cc3)nc2n(CCC)c1=O |  | 
5170 nM |  |  |  | CCCn1c(=O)c2[nH]c(-c3ccc(OCc4nc(-c5ccc(Cl)cc5)no4)cc3)nc2n(CCC)c1=O |  | 
3660 nM |  |  |  | CCCn1c(=O)c2nc(-c3ccc(OCc4noc(-c5ccc(Cl)cc5)n4)cc3)[nH]c2n(CCC)c1=O |  | 
1450 nM |  | > 5000 nM | 2010 nM | CCCn1c(=O)c2nc(-c3ccc(OCc4nc(-c5cccc(F)c5)no4)cc3)[nH]c2n(CCC)c1=O |  | 
> 6670 nM |  | > 5000 nM | > 6000 nM | CCCn1c(=O)c2nc(-c3ccc(OCc4nc(-c5cccc(C)c5)no4)cc3)[nH]c2n(CCC)c1=O |  | 
438 nM |  | > 15000 nM | > 10000 nM | CCCn1c(=O)c2nc(-c3ccc(OCc4noc(-c5ccccc5C)n4)cc3)[nH]c2n(CCC)c1=O |  | 
2780 nM |  | > 5000 nM | > 6000 nM | CCCn1c(=O)c2nc(-c3ccc(OCc4nc(-c5ccc(OC)cc5)no4)cc3)[nH]c2n(CCC)c1=O |  | 
325 nM |  | 3140 nM | 473 nM | CCCn1c(=O)c2nc(-c3ccc(OCc4nc(-c5ccccc5C(F)(F)F)no4)cc3)[nH]c2n(CCC)c1=O |  | 
1010 nM |  | > 5000 nM | > 6000 nM | CCCn1c(=O)c2nc(-c3ccc(OCc4noc(-c5cccc(C(F)(F)F)c5)n4)cc3)[nH]c2n(CCC)c1=O |  | 
> 2000 nM |  | > 5000 nM | > 6000 nM | CCCn1c(=O)c2[nH]c(-c3ccc(OCc4noc(-c5cccc(F)c5)n4)cc3)nc2n(CCC)c1=O |  | 
42 nM |  | 407 nM | 6.4 nM | CCCn1c(=O)c2nc(-c3ccc(OCc4nc(-c5cccc(Cl)c5)no4)cc3)[nH]c2n(CCC)c1=O |  | 

The remaining lines, values behind:

Compound | Ki (Adenosine receptor A2b [1]) | Ki (Adenosine receptor A2b [2]) | Ki (Adenosine receptor A2a [3]) | Ki (Adenosine receptor A1) | Ki (Adenosine receptor A2a [4]) | Ki (Adenosine receptor A2b [5])
CCCn1c(=O)c2[nH]c(-c3ccc(OCc4nc(-c5ccc(F)cc5)no4)cc3)nc2n(CCC)c1=O | 215 nM | 215 nM | > 5000 nM | 1830 nM |  | 
CCCn1c(=O)c2nc(-c3ccc(OCc4noc(-c5ccc(C(F)(F)F)cc5)n4)cc3)[nH]c2n(CCC)c1=O | 255 nM |  | 4910 nM | 5180 nM |  | 
CCCn1c(=O)c2nc(-c3ccc(OCc4nc(-c5ccccc5Cl)no4)cc3)[nH]c2n(CCC)c1=O | 1830 nM |  | > 5000 nM | > 6000 nM |  | 
CCCn1c(=O)c2nc(-c3ccc(OCc4noc(-c5ccc(C)cc5)n4)cc3)[nH]c2n(CCC)c1=O | 91 nM |  | 1010 nM | 113 nM |  | 
CCCn1c(=O)c2nc(-c3ccc(OCc4nc(-c5ccc(C)cc5)no4)cc3)[nH]c2n(CCC)c1=O | 526 nM |  | > 5000 nM | 643 nM |  | 
CCCn1c(=O)c2nc(-c3ccc(OCc4noc(-c5cccc(Cl)c5)n4)cc3)[nH]c2n(CCC)c1=O | 2080 nM |  | > 5000 nM | > 6000 nM |  | 
CCCn1c(=O)c2nc(-c3ccc(OCc4nc(-c5ccccc5F)no4)cc3)[nH]c2n(CCC)c1=O | > 2000 nM |  | > 5000 nM | > 6000 nM |  | 
CCCn1c(=O)c2[nH]c(-c3ccc(OCc4nc(-c5ccccc5OC)no4)cc3)nc2n(CCC)c1=O | 557 nM |  | > 5000 nM | > 6000 nM |  | 
CCCn1c(=O)c2[nH]c(-c3ccc(OCc4nc(-c5cccc(C(F)(F)F)c5)no4)cc3)nc2n(CCC)c1=O | 945 nM |  | > 5000 nM | > 6000 nM |  | 
CCCn1c(=O)c2nc(-c3ccc(OCc4noc(-c5ccccc5F)n4)cc3)[nH]c2n(CCC)c1=O | 645 nM |  |  |  |  | 
CCCn1c(=O)c2nc(-c3ccc(OCc4nc(-c5ccccc5C)no4)cc3)[nH]c2n(CCC)c1=O | 1120 nM |  | > 5000 nM | > 6000 nM |  | 
CCCn1c(=O)c2[nH]c(-c3ccc(OCc4noc(-c5ccc(C#N)cc5)n4)cc3)nc2n(CCC)c1=O | 207 nM |  | > 5000 nM | 288 nM |  | 
CCCn1c(=O)c2[nH]c(-c3ccc(OCc4noc(-c5ccc(OC)cc5)n4)cc3)nc2n(CCC)c1=O | 250 nM |  |  | 2190 nM |  | 
CCCn1c(=O)c2nc(-c3ccc(OCc4nc(-c5cccc(OC)c5)no4)cc3)[nH]c2n(CCC)c1=O | 1680 nM |  | > 5000 nM | > 6000 nM |  | 
CCCn1c(=O)c2[nH]c(-c3ccc(OCc4nc(-c5ccc(C(F)(F)F)cc5)no4)cc3)nc2n(CCC)c1=O | 485 nM |  | > 5000 nM | 1170 nM |  | 
CCCn1c(=O)c2[nH]c(-c3ccc(OCc4noc(-c5ccccc5OC)n4)cc3)nc2n(CCC)c1=O | 127 nM |  | 2940 nM | 1160 nM | 23 nM | 127 nM
CCCn1c(=O)c2[nH]c(-c3ccc(OCc4noc(-c5ccc(F)cc5)n4)cc3)nc2n(CCC)c1=O | 220 nM |  | > 5000 nM | > 6000 nM |  | 
CCCn1c(=O)c2[nH]c(-c3ccc(OCc4noc(-c5cccc(C)c5)n4)cc3)nc2n(CCC)c1=O | 700 nM |  |  |  |  | 
CCCn1c(=O)c2nc(-c3ccc(OCc4nc(-c5ccc(C#N)cc5)no4)cc3)[nH]c2n(CCC)c1=O | 4520 nM |  | > 5000 nM | > 6000 nM |  | 
